Test results as given in ChEMBL document CHEMBL1201862, “PubChem BioAssay data set” (2004).
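96-well plates; 48 h exposure; 5 concentrations. Endpoints by linear interpolation between flanking doses. Not reached: highest tested concentration assigned. GI50: concentration for 50% inhibition of growth.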 Active and inactive are the calls of the source. Rule as the data show it: active = GI50 up to about 1.1 µM and inactive = higher.

What was measured:
Assay in all cases: NCI-60 cell line screen, 48 h
COLO 205 = test system: COLO 205
OVCAR-4 = test system: OVCAR-4
HL-60 = test system: HL-60
LOX IMVI = test system: LOX IMVI
NCI-H522 = test system: NCI-H522
NCI-H226 = test system: NCI-H226
OVCAR-8 = test system: OVCAR-8
RXF 631 = test system: RXF 631
HCC 2998 = test system: HCC 2998
HCT-116 = test system: HCT-116
HT-29 = test system: HT-29
IGROV-1 = test system: IGROV-1
SF-268 = test system: SF-268
OVCAR-3 = test system: OVCAR-3
KM12 = test system: KM12
Malme-3M = test system: Malme-3M
SK-OV-3 = test system: SK-OV-3
SK-MEL-2 = test system: SK-MEL-2
A498 = test system: A498
DMS-114 = test system: DMS-114
MOLT-4 = test system: MOLT-4
NCI-H23 = test system: NCI-H23
SNB-78 = test system: SNB-78
HCT-15 = test system: HCT-15
NCI-H460 = test system: NCI-H460
HOP-62 = test system: HOP-62
M19-MEL = test system: M19-MEL
UACC-257 = test system: UACC-257
DLD-1 = test system: DLD-1
UACC-62 = test system: UACC-62
SNB-19 = test system: SNB-19
OVCAR-5 = test system: OVCAR-5
DMS-273 = test system: DMS-273
LXFL 529 = test system: LXFL 529
ACHN = test system: ACHN
U-251 = test system: U-251
786-0 = test system: 786-0
A549 = test system: A549
RXF 393 = test system: RXF 393
K562 = test system: K562
SF-539 = test system: SF-539
SN12C = test system: SN12C
SK-MEL-28 = test system: SK-MEL-28
EKVX = test system: EKVX
TK-10 = test system: TK-10
M14 = test system: M14
UO-31 = test system: UO-31
SNB-75 = test system: SNB-75
SK-MEL-5 = test system: SK-MEL-5
SW-620 = test system: SW-620
CCRF-CEM = test system: CCRF-CEM
HOP-92 = test system: HOP-92
CAKI-1 = test system: CAKI-1
KM-20L2 = test system: KM-20L2
HOP-18 = test system: HOP-18
SF-295 = test system: SF-295
SR = test system: SR
RPMI-8226 = test system: RPMI-8226
MCF7 = test system: MCF7
DU-145 = test system: DU-145
T47D = test system: T47D
NCI/ADR-RES = test system: NCI/ADR-RES
MDA-MB-435 = test system: MDA-MB-435

For CC1=CC(=O)N(c2c(C)cccc2Cl)C(C)N1 (stereo unspecified), the GI50 (COLO 205) was > 100 µM (inactive), the GI50 (OVCAR-4) was > 100 µM (inactive) and the GI50 (HL-60) was > 100 µM (inactive). For the same compound, the GI50 (LOX IMVI) was > 100 µM (inactive), the GI50 (NCI-H522) was > 100 µM (inactive) and the GI50 (NCI-H226) was > 100 µM (inactive). For the same compound, the GI50 (OVCAR-8) was > 100 µM (inactive), the GI50 (RXF 631) was > 100 µM (inactive) and the GI50 (HCC 2998) was > 100 µM (inactive). For the same compound, the GI50 (HCT-116) was > 100 µM (inactive), the GI50 (HT-29) was > 100 µM (inactive) and the GI50 (IGROV-1) was > 100 µM (inactive). The GI50 (SF-268) was > 100 µM (inactive), the GI50 (OVCAR-3) was > 100 µM (inactive) and the GI50 (KM12) was > 100 µM (inactive). For the same compound, the GI50 (Malme-3M) was > 100 µM (inactive), the GI50 (SK-OV-3) was > 100 µM (inactive) and the GI50 (SK-MEL-2) was > 100 µM (inactive). For the same compound, the GI50 (A498) was > 100 µM (inactive), the GI50 (DMS-114) was > 100 µM (inactive) and the GI50 (MOLT-4) was > 100 µM (inactive). For the same compound, the GI50 (NCI-H23) was > 100 µM (inactive), the GI50 (SNB-78) was > 100 µM (inactive) and the GI50 (HCT-15) was greater than 100 µM. For the same compound, the GI50 (NCI-H460) was > 100 µM (inactive), the GI50 (HOP-62) was > 100 µM (inactive) and the GI50 (M19-MEL) was > 100 µM (inactive). For the same compound, the GI50 (UACC-257) was > 100 µM (inactive), the GI50 (DLD-1) was > 100 µM (inactive) and the GI50 (UACC-62) was > 100 µM (inactive). For the same compound, the GI50 (SNB-19) was > 100 µM (inactive), the GI50 (OVCAR-5) was > 100 µM (inactive) and the GI50 (DMS-273) was > 100 µM (inactive). For the same compound, the GI50 (LXFL 529) was > 100 µM (inactive), the GI50 (ACHN) was > 100 µM (inactive) and the GI50 (U-251) was > 100 µM (inactive). The GI50 (786-0) was > 100 µM (inactive), the GI50 (A549) was > 100 µM (inactive) and the GI50 (RXF 393) was > 100 µM (inactive). The GI50 (K562) was > 100 µM (inactive), the GI50 (SF-539) was > 100 µM (inactive) and the GI50 (SN12C) was > 100 µM (inactive). For the same compound, the GI50 (SK-MEL-28) was > 100 µM (inactive), the GI50 (EKVX) was > 100 µM (inactive) and the GI50 (TK-10) was > 100 µM (inactive). The GI50 (M14) was > 100 µM (inactive), the GI50 (UO-31) was > 100 µM (inactive) and the GI50 (SNB-75) was > 100 µM (inactive). For the same compound, the GI50 (SK-MEL-5) was > 100 µM (inactive), the GI50 (SW-620) was > 100 µM (inactive) and the GI50 (CCRF-CEM) was > 100 µM (inactive). For the same compound, the GI50 (HOP-92) was > 100 µM (inactive), the GI50 (CAKI-1) was > 100 µM (inactive) and the GI50 (KM-20L2) was > 100 µM (inactive). For the same compound, the GI50 (HOP-18) was > 100 µM (inactive) and the GI50 (SF-295) was > 100 µM (inactive).
COC(=O)C1=Cc2c(cc(OC)c(OC)c2OC)[C@H](c2ccc(OC)c(OC)c2OC)C1C(=O)OC (stereo partly specified) was tested, and the GI50 (COLO 205) was 55.7 µM (inactive), the GI50 (OVCAR-4) was > 100 µM (inactive) and the GI50 (HL-60) was 54.6 µM (inactive). For the same compound, the GI50 (LOX IMVI) was > 100 µM (inactive), the GI50 (NCI-H522) was 89.9 µM (inactive) and the GI50 (NCI-H226) was > 100 µM (inactive). The GI50 (OVCAR-8) was > 100 µM (inactive), the GI50 (RXF 631) was 71.8 µM (inactive) and the GI50 (HCC 2998) was > 100 µM (inactive). For the same compound, the GI50 (HCT-116) was 92.3 µM (inactive), the GI50 (HT-29) was 36.1 µM (inactive) and the GI50 (IGROV-1) was > 100 µM (inactive). For the same compound, the GI50 (SF-268) was > 100 µM (inactive), the GI50 (OVCAR-3) was > 100 µM (inactive) and the GI50 (KM12) was > 100 µM (inactive). For the same compound, the GI50 (Malme-3M) was > 100 µM (inactive), the GI50 (SK-OV-3) was > 100 µM (inactive) and the GI50 (A498) was > 100 µM (inactive). The GI50 (DMS-114) was 61.7 µM (inactive), the GI50 (MOLT-4) was 83 µM (inactive) and the GI50 (NCI-H23) was > 100 µM (inactive). The GI50 (SNB-78) was 40.8 µM (inactive), the GI50 (HCT-15) was 75 µM and the GI50 (NCI-H460) was > 100 µM (inactive). The GI50 (HOP-62) was > 100 µM (inactive), the GI50 (M19-MEL) was > 100 µM (inactive) and the GI50 (UACC-257) was > 100 µM (inactive). The GI50 (DLD-1) was > 100 µM (inactive), the GI50 (UACC-62) was 54.2 µM (inactive) and the GI50 (SNB-19) was > 100 µM (inactive). The GI50 (OVCAR-5) was > 100 µM (inactive), the GI50 (DMS-273) was 29.5 µM (inactive) and the GI50 (LXFL 529) was > 100 µM (inactive). The GI50 (ACHN) was > 100 µM (inactive), the GI50 (U-251) was > 100 µM (inactive) and the GI50 (786-0) was > 100 µM (inactive). For the same compound, the GI50 (A549) was > 100 µM (inactive), the GI50 (RXF 393) was > 100 µM (inactive) and the GI50 (K562) was > 100 µM (inactive). For the same compound, the GI50 (SF-539) was > 100 µM (inactive), the GI50 (SN12C) was > 100 µM (inactive) and the GI50 (SR) was 46.7 µM (inactive). For the same compound, the GI50 (SK-MEL-28) was > 100 µM (inactive), the GI50 (EKVX) was > 100 µM (inactive) and the GI50 (TK-10) was > 100 µM (inactive). For the same compound, the GI50 (M14) was > 100 µM (inactive), the GI50 (UO-31) was 47.1 µM (inactive) and the GI50 (SNB-75) was > 100 µM (inactive). For the same compound, the GI50 (SK-MEL-5) was > 100 µM (inactive), the GI50 (SW-620) was > 100 µM (inactive) and the GI50 (CCRF-CEM) was > 100 µM (inactive). The GI50 (HOP-92) was 17.4 µM (inactive), the GI50 (CAKI-1) was > 100 µM (inactive) and the GI50 (KM-20L2) was > 100 µM (inactive). For the same compound, the GI50 (RPMI-8226) was 89.5 µM (inactive) and the GI50 (SF-295) was 65.9 µM (inactive).
COc1cc2c(c(OC)c1OC)-c1ccc(OC)c(=O)cc1[C@@H](NC(C)=O)CC2 [COLCHICINE] was tested, and the GI50 (OVCAR-4) was 12.9 µM (inactive), the GI50 (HL-60) was < 0.0625 µM (active) and the GI50 (NCI-H522) was 0.0119 µM (active). For the same compound, the GI50 (RXF 631) was 0.0363 µM (active), the GI50 (MCF7) was 0.0625 µM (active) and the GI50 (HCT-116) was 0.0168 µM (active). For the same compound, the GI50 (DU-145) was 0.659 µM (active), the GI50 (T47D) was > 78.3 µM (inactive) and the GI50 (MOLT-4) was 0.0237 µM (active). The GI50 (DLD-1) was 0.0625 µM (active), the GI50 (OVCAR-5) was 7.18 µM (inactive) and the GI50 (K562) was 0.0135 µM (active). For the same compound, the GI50 (NCI/ADR-RES) was 0.845 µM (active), the GI50 (MDA-MB-435) was < 0.01 µM (active) and the GI50 (EKVX) was 49 µM (inactive). The GI50 (TK-10) was 23.7 µM (inactive), the GI50 (UO-31) was 0.56 µM (active) and the GI50 (KM-20L2) was < 0.0625 µM (active). For the same compound, the GI50 (HOP-18) was > 68.9 µM (inactive).
